{"source": "patent US10493077B2", "about": "“Fused imidazo-piperidine JAK inhibitor compound” (THERAVANCE BIOPHARMA R&D IP, LLC, priority 2017, dated 2019)", "key": {"[1]": {"target": "T1, AURKA (Homo sapiens, UniProt O14965)", "T1 construct": "made in house; host or cells: T7 phage in E. coli (BL21-derived) or HEK-293", "T1 sequence (O14965 whole entry)": "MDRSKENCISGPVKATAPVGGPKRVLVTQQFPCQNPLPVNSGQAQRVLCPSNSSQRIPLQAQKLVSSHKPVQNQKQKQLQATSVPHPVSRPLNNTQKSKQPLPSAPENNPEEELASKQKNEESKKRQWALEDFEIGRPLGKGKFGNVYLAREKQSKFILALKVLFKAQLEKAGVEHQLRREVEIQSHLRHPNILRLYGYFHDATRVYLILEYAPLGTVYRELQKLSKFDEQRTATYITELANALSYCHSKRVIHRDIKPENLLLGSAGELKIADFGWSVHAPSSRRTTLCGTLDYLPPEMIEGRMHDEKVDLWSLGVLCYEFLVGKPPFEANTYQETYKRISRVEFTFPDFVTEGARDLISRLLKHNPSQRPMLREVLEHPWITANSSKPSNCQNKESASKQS", "test": "Kinome screen, AURKA", "format": "binding", "settings": "screened at 1 μM", "experimental": "(§1) Kinase-tagged T7 phage strains were grown in parallel in 24-well blocks in an E. coli host derived from the BL21 strain. E. coli were grown to log-phase and infected with T7 phage from a frozen stock (multiplicity of infection=0.4) and incubated with shaking at 32° C. until lysis (90-150 minutes). The lysates were centrifuged (6,000×g) and filtered (0.2 μm) to remove cell debris. The remaining kinases were produced in HEK-293 cells and subsequently tagged with DNA for qPCR detection.\n(§2) Streptavidin-coated magnetic beads were treated with biotinylated small molecule ligands for 30 minutes at room temperature to generate affinity resins for kinase assays. The liganded beads were blocked with excess biotin and washed with blocking buffer (SeaBlock (Pierce), 1% BSA, 0.05% Tween 20, 1 mM DTT) to remove unbound ligand and to reduce non-specific phage binding. […] Test compounds were prepared as 40× stocks in 100% DMSO and directly diluted into the assay. All reactions were performed in polypropylene 384-well plates in a final volume of 0.04 ml. […] The beads were then re-suspended in elution buffer (1×PBS, 0.05% Tween 20, 0.5 μM non-biotinylated affinity ligand) and incubated at room temperature with shaking for 30 minutes. The kinase concentration in the eluates was measured by qPCR."}, "[2]": {"system": "IL-13 induced STAT6 phosphorylation in BEAS-2B human lung epithelial cells", "test": "Cellular JAK potency assay: inhibition of IL-13 (AlphaScreen, BEAS-2B)", "format": "cell-based", "experimental": "The AlphaScreen JAK1 cellular potency assay was carried out by measuring interleukin-13 (IL-13, R&D Systems) induced STAT6 phosphorylation in BEAS-2B human lung epithelial cells (ATCC). The anti-STAT6 antibody (Cell Signaling Technologies) was conjugated to AlphaScreen acceptor beads (Perkin Elmer), while the anti-pSTAT6 (pTyr641) antibody (Cell Signaling Technologies) was biotinylated using EZ-Link Sulfo-NHS-Biotin (Thermo Scientific).\nBEAS-2B cells were grown at 37° C. in a 5% CO2 humidified incubator in 50% DMEM/50% F-12 medium (Life Technologies) supplemented with 10% FBS (Hyclone), 100 U/mL penicillin, 100 μg/mL streptomycin (Life Technologies), and 2 mM GlutaMAX (Life Technologies). On day 1 of the assay, cells were seeded at a 7,500 cells/well density in white poly-D-lysine-coated 384-well plates (Corning) with 25 μL medium, and were allowed to adhere overnight in the incubator. […] After a minimum of 2 h incubation, the assay plates were read on the EnVision plate reader. AlphaScreen luminescence signals were recorded and utilized to calculate the percent inhibition values based on DMSO and background controls.\nFor dose-response analysis, percent inhibition data were plotted vs. compound concentrations, and IC50 values were determined from a 4-parameter robust fit model with the Prism software. Results may also be expressed as the negative logarithm of the IC50 value, pIC50."}, "[3]": {"target": "T2, PAK4 (Homo sapiens, UniProt O96013)", "T2 construct": "made in house; host or cells: T7 phage in E. coli (BL21-derived) or HEK-293", "T2 sequence (O96013 whole entry)": "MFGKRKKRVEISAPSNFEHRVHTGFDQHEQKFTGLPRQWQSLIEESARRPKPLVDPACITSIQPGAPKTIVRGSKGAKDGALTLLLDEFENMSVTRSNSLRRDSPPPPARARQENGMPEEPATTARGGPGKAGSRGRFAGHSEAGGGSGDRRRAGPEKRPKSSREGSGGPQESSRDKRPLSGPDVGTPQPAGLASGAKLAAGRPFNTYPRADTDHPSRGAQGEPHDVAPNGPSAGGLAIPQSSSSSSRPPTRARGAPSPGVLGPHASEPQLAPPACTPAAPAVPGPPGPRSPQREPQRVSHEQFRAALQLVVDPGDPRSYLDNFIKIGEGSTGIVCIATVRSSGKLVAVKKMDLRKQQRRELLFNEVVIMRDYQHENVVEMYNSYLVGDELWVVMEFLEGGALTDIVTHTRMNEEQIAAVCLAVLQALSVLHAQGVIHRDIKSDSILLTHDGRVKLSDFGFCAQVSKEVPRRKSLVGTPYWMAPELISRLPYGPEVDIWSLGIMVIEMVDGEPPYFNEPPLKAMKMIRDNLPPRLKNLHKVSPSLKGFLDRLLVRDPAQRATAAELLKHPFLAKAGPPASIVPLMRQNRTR", "test": "Kinome screen, PAK4", "format": "binding", "settings": "screened at 1 μM", "experimental": "as §1, §2"}, "[4]": {"test": "Lung and plasma pharmacokinetics in mice", "format": "in vivo, mouse", "settings": "BALB/c mice, Form 1 suspension 0.1 mg/mL, 50 μL by oral aspiration", "experimental": "Plasma and lung concentrations of compound 1 and ratios thereof were determined in the following manner. BALB/c mice from Charles River Laboratories were used in the assay. Compound 1 Form 1 of example 2 was formulated in 0.01% Tween 80 in normal saline (0.9% sodium chloride in water) at a concentration of 0.1 mg/mL as a suspension. 50 μL of the suspension formulation was introduced into the trachea of a mouse by oral aspiration. At various time points (0.083, 1, 4, 24, 48, 72, and 96 hr). Post dosing, blood samples were removed via cardiac puncture and intact lungs were excised from the mice. Blood samples were centrifuged (Eppendorf centrifuge, 5804R) for 4 minutes at approximately 12,000 rpm at 4° C. to collect plasma. Lungs were padded dry, weighed, and homogenized at a dilution of 1:3 in sterile water. Plasma and lung concentrations of compound 1 were determined by LC-MS analysis against analytical standards constructed into a standard curve in the test matrix. […] The lung half-life was calculated at approximately 40 hours. The lung to plasma ratio was determined as the ratio of the lung AUC in μg hr/g to the plasma AUC in μg hr/mL (where AUC is conventionally defined as the area under the curve of test compound concentration vs. time)."}}, "note": "Read-outs that look alike come from different tables or passages of the source."}
{"smiles": "CCc1cc(O)c(F)cc1-c1cc(F)c2c(-c3nc4c([nH]3)CCN(C(=O)CN3CCOCC3)C4)n[nH]c2c1", "note": "[Compound 1, 1-(2-(6-(2-ethyl-5-fluoro-4-hydroxyphenyl)-4-fluoro-1H-indazol-3-yl)-1,4,6,7-tetrahydro-5H-imidazo[4,5-c]pyridin-5-yl)-2-morpholinoethan-1-one]", "values": [{"measurement": "inhibition at 1 µM", "setting": "[1]", "result": 11, "unit": "%"}, {"measurement": "IC50", "setting": "[2]; Assay 2, BEAS-2B cells, read-out: IC50 for inhibition of IL-13", "result": 0.013, "unit": "µM"}, {"measurement": "IC50", "setting": "[2]; BEAS-2B cells, read-out: pIC50, inhibition of IL-13 induced STAT6 phosphorylation (converted)", "result": 0.0126, "unit": "µM"}, {"measurement": "inhibition at 1 µM", "setting": "[3]", "result": 93, "unit": "%"}, {"measurement": "lung AUC (0-96 hr)", "setting": "[4]", "result": 360, "unit": "µg·h/g"}, {"measurement": "Kp", "setting": "[4]; mouse, lung and plasma, 5 μg/mouse, read-out: lung to plasma AUC ratio", "result": 1780}, {"measurement": "half-life", "setting": "[4]; mouse, lung, 5 μg/mouse", "result": "~40", "unit": "h"}]}
